From BindingDB's records for doi:10.1016/j.ejmech.2023.115229 (Sichuan University, 2023)

Biological target: Ribosomal protein S6 kinase alpha-2 (Homo sapiens, UniProt Q15349)
Assay: Inhibition of RSK3 (unknown origin)

Sequence of Ribosomal protein S6 kinase alpha-2 (Q15349 whole entry): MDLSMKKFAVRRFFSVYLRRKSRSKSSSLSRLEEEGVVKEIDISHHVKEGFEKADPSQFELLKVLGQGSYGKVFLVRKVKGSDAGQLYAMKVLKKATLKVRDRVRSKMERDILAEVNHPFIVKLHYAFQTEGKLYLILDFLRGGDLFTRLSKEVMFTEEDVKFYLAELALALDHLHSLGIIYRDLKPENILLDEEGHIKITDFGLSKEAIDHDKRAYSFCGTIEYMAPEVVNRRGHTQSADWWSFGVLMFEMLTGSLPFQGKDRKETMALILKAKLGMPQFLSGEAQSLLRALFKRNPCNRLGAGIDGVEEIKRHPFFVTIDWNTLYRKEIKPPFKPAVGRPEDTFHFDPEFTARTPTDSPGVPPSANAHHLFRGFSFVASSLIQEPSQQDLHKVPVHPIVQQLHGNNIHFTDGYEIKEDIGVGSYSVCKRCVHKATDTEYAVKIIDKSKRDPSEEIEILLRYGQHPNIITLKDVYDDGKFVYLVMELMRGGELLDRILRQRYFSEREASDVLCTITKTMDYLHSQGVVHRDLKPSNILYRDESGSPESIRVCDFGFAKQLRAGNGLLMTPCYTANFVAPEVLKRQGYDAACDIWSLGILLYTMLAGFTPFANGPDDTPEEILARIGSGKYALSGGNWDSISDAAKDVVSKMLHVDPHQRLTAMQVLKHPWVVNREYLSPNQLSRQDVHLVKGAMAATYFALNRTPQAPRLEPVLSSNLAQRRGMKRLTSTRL

IC50: 891 nM
SMILES: O=c1c(O)c(-c2ccc(O)c(O)c2)oc2cc(O)ccc12 [2-(3,4-dihydroxyphenyl)-3,7-dihydroxy-chromen-4-one]
